This is an account of results in US20140301961A1, “COMPOUNDS WITH ANTI-AGING ACTIVITIES” (priority 2011, published 2014).

The test system of one assay is pro-collagen type 1. The assay is described as follows: Pro-collagen 1 ELISA in dermal fibroblasts. In kind it is cell-based, human. The note with it: 24 hour stimulation, 3 donors (FIG. 5). The method, then:
MMP-inhibitory activity for compounds of the invention was also assessed on human dermal fibroblasts. Dermal fibroblasts were cultured in Dulbecco's Modified Eagle Medium (DMEM) (Invitrogen) with 10% EBS (ex. Invitrogen) and 1% Pencillin/Streptavidin (ex. Invitrogen). To induce inflammation in the cells, PMA (phorbol myristate acetate) (ex. Sigma) was used at a concentration of 10 nM. […] The cells were stimulated for 24 h and the culture supernatant was collected and stored at −20° C. until further analysis.
Fibroblast cells were cultured as outlined in Example 3.1 and treated with compounds of the invention The secretion of pro-collagen in the cell culture supernatants were analyzed using Pro-Collagen 1 specific ELISA (#8003; ex. Quidel). Results were compared with cell culture supernatants from DMSO vehicle treated cells. The assays utilized a 96-well microplate format and were processed according to the manufacturer's protocol, including generation of a standard curve prepared in background assay diluents. Absorbance of the assay dye was read at a Synergy HT plate reader. Values that fell within the linear range of the calibration assay were accepted. Quantities were determined by comparison to standard curve obtained for pro-collagen 1.

A further assay relates to interleukin-6 [IL-6]. The assay is described as follows: Interleukin-6 production in PMA-stimulated dermal fibroblasts. It counts as cell-based, human. The conditions noted are these: PMA 10 nM (FIG. 7). As to the method: Human dermal fibroblast cell cultures were prepared according to Example 3.1. To induce inflammation in the cells PMA (phorbol myristate acetate) (ex. Sigma) was used at a concentration of 10 nM. […] The cells were stimulated for 24 h and the culture supernatant was collected and stored at −20° C. until further analysis
Experimental method as outlined in Example 3.1 was modified in order to analyze IL-6 levels extracted from dermal fibroblasts stimulated for 6 days with all-trans retinoic acid, retinol, arachidonic acid, β-aescin, and […] (ethyl ester) at a range of concentrations. Experiments were performed in duplicates.

The test system of another assay is GM-CSF. Put plainly: GM-CSF production in PMA-stimulated human dermal fibroblasts. In kind it is cell-based. The note with it: PMA 10 nM (FIG. 8). The method, then: Cell Cultures were Prepared According to Example 3.1
To induce inflammation in the cells PMA (phorbol myristate acetate) (ex. Sigma) was used at a concentration of 10 nM. […] The cells were stimulated for 24 h and the culture supernatant was collected and stored at −20° C. until further analysis.
Experimental method as outlined in Example 3.1 was modified in order to analyze GM-CSGF levels in human dermals fibroblasts stimulated with all-trans retinoic acid, retinol, arachidonic acid, β-aescin, and […] (ethyl ester) at a range of concentrations. Experiments were performed in duplicates.

A further assay relates to Keratin 1/10. The assay is described as follows: Keratin 1/10 production in human normal keratinocytes. It counts as cell-based. The conditions noted are these: for synthesis of Keratin 1/10: human normal keratinocytes (FIG. 15). As to the method:
Keratinocytes were cultured in commercially available keratinocyte medium M154 (Cascade Biologics/Invitrogen) # M154500 with a final calcium […]. Supplements were added meeting following final concentrations of growth factors; bovine pituitary extract (BPE), 0.2% v/v·bovine insulin, 5 μg/ml·hydrocortisone, 0.18 μg/ml·bovine transferrin, 5 μg/ml·human epidermal growth factor, 0.2 ng/ml.
Medium was changed every other day. Cells were grown to 80% confluence prior stimulation with compounds. Experiments were performed in 24-well plates. The cells were treated with individual compounds of the invention for 6 days. After 3 days the medium was refreshed. A source of calcium ions was used as a positive control. After 6 days tissue culture medium was stored in −20° C. until analysis.
Cells were cultured as described in Example 5.1. and the methodology described in Example 3.1 was adapted in order analyze keratin 1/10 production.

Assay [1] concerns hydroxysteroid (17-beta) dehydrogenase 2 (HSD17B2). The assay is described as follows: Affymetrix gene array on skin explants, HSD17B2. It counts as cell-based, human. The note with it: topical, 24 hours. An excerpt: (§1) Subcutaneous fat from full thickness skin, obtained from surgical waste material from breast reduction procedures, was removed with a scalpel. Three healthy Caucasian female donors were used for this study. The female donors differed from those of the skin-treatment study outlined previously 8 mm punch biopsies were taken from the skin (and these biopsies are now referred to as skin explants). Skin explants were put on Milipore cell culture inserts (12 mm diameter). Inserts containing skin explants were put in 6-well plates (one insert/well) and 1 mL of supplemented keratinocyte medium (ex Cascade Biologics) was added to each well. A tretinoin-containing cream (Aberela® ex. Janssen): 0.05% tretinoin in the cream, was applied topically to each explant (5 μL/cm^2) using a positive displacement pipette. A placebo cream without tretinoin was used as a control. The skin explants were incubated with tretinoin for 24 hours at 37° C. in 5% CO2-humidified air.
(§2) RNA concentration was measured with ND-1000 spectrophotometer (ex. NanoDrop Technologies) and RNA quality was evaluated using the Agilent 2100 bioanalyzer system (ex. Agilent Technologies). 250 nanograms of total RNA from each skin or skin explant sample was used to prepare biotinylated fragmented cRNA according to the GeneChip® 3′IVT Express Kit Manual (PN702646 Rev 1, ex. Affymetrix Inc.). Affymetrix GeneChip® expression arrays (Human Genome U133 Plus 2.0) were hybridized for 16 hours in a 45° C. incubator, rotated at 60 rpm. According to the GeneChip Expression Wash, Stain and Scan Manual (PN 702731 Rev 2, ex. Affymetrix Inc.) the arrays were washed and stained using the Fluidics Station 450 and scanned using the GeneChip® Scanner 3000 7G.
(§3) Analysis of the gene expression data was carried out in the statistical computing language R (http://www.r-project.org) using packages available from the Bioconductor project (www.bioconductor.org). The raw data was normalized using the robust multi-array average (RMA) method. In order to search for differentially expressed genes between the X samples and the Y samples group an empirical Bayes moderated t-test was then applied using the ‘limma’ package.
(§4) Skin explants were obtained as detailed in Example 3.1.

The test system of assay [2] is arachidonate 5-lipoxygenase (ALOX5). Put plainly: Affymetrix gene array on skin explants, ALOX5. It counts as cell-based, human. The note with it: topical, 24 hours.
From the text: as §1, §2, §3, §4

The structures appear in SMILES notation.

`C=C1C[C@]23C[C@@]1(O)CC[C@H]2[C@@]12C=C[C@H](O)[C@@](C)(C(=O)O1)[C@@H]2[C@@H]3C(=O)O` [Gibberellic acid, (3S,3aS,4S,4aS,7S,9aR,9bR,12S)-7,12-dihydroxy-3-methyl-6-methylene-2-oxoperhydro-4a,7-methano-9b,3-propenoazuleno[1,2-b]furan-4-carboxylic acid]: the “production of pro-collagen type 1” value in the assay with pro-collagen type 1 was “significantly increase”. Also, the interleukin-6 production entry with interleukin-6 [IL-6] is reported as “inhibit interleukin-6 production”. In addition, in the assay with GM-CSF, the GM-CSF production entry is reported as “inhibition of GM-CSF production”. The “synthesis of Keratin 1/10” value in the assay with Keratin 1/10 (1.2 microM) was “significant increase in the synthesis of Keratin 1/10”. In assay [1], this compound returned an HSD17B2 gene expression of −0.52 log 2−ratio. The same compound gave an ALOX5 gene expression in assay [2] of −1.01 log 2−ratio.
As to `CC(=O)N[C@@H](CC(=O)O)C(=O)O` [N-Acetyl aspartic acid, (2S)-2-Acetamidobutanedioic acid], the “production of pro-collagen type 1” value in the assay on pro-collagen type 1 is listed as “significantly increase”. Besides, in the assay with interleukin-6 [IL-6], the interleukin-6 production entry was “inhibit interleukin-6 production”. For the same compound, the GM-CSF production entry in the assay with GM-CSF was “inhibition of GM-CSF production”. In the assay on Keratin 1/10 (concentration not given), the “production of Keratin 1/10” value is “stimulate production of Keratin 1/10”. The same compound showed an HSD17B2 gene expression in assay [1] of −1.46 log 2−ratio. In assay [2], this compound registered an ALOX5 gene expression of 0.15 log 2−ratio.
With `O=C1C[C@@H](c2ccc(O)cc2)Oc2cc(O)cc(O)c21` [Naringenin, (S)-2,3-Dihydro-5,7-dihydroxy-2-(4-hydroxyphenyl)-4H-1-benzopyran-4-one], the “production of pro-collagen type 1” value in the assay on pro-collagen type 1 is reported as “convincing trend towards increasing”. The interleukin-6 production result with interleukin-6 [IL-6] is reported as “inhibit interleukin-6 production”. The GM-CSF production entry in the assay with GM-CSF was “inhibition of GM-CSF production”. Besides, the “synthesis of Keratin 1/10” value in the assay with Keratin 1/10 (150 microM) is “significant increase in the synthesis of Keratin 1/10”. In assay [1], this compound had an HSD17B2 gene expression of −0.83 log 2−ratio. The ALOX5 gene expression in assay [2] is −0.69 log 2−ratio.
